Data set [1] can be described thus: Glass transition temperature by Differential Scanning Calorimetry (DSC). As to conditions: dry amorphous lisinopril. It is filed as physicochemical. On the procedure:
Differential Scanning Calorimetry (DSC) was performed on approximately 0.5-3 mg sample, using a Mettler DSC820 instrument, according to standard methods, for example those described in Hohne et al. (1996) Differential scanning Calorimetry, Springer, Berlin.

A short description of data set [2]: Glass transition temperature by Thermal Mechanical Analysis (TMA). As to conditions: heating rate 10° C./min, 30-160° C. It is filed as physicochemical. On the procedure:
The method involves compressing 140 mg of material in a punch and die (3 mm) to 2 KN. The compressed pellet was then placed on the TMA and the 1.1 mm probe placed on the top face. A heating rate of 10° C./min was used and the sample was heated from 30-160° C.

For data set [3] the following is noted: cited from earlier work.

A value given as a limit tells only on which side of the number the result lay.

Regarding `NCCCC[C@H](NC(CCc1ccccc1)C(=O)O)C(=O)N1CCC[C@H]1C(=O)O` (stereo partly drawn) [amorphous lisinopril, (S)-1-[N^2-(1-carboxy-3-phenylpropyl]-L-lysyl]-L-proline], the “glass transition temperature (Tg) by DSC” value in data set [1] came out at 125 °C. Further, the “glass transition temperature by TMA” value in data set [2] amounted to 129 °C.

For the compound `NCCCC[C@H](NC(CCc1ccccc1)C(=O)O)C(=O)N1CCC[C@H]1C(=O)O` (stereo partly drawn) [lisinopril, (S)-1-[N^2-(1-carboxy-3-phenylpropyl]-L-lysyl]-L-proline], the “effective half-life of accumulation” value in data set [3] (multiple dosing) was “about 12.6 hours”. In addition, in data set [3] (oral administration), the “time to peak serum concentrations” value is not above 7 h.
